Results taken from ChEMBL document CHEMBL3132754 (Medchemcomm, 2013).

Assays:
MV4-11 = assay: […] histone methylation in human MV4-11 cells assessed as H3K79 methylation after 4 days by Western blot analysis; format: functional, cell-based; settings: MV4-11, 96 h
Plasma = assay: (§1) Stability in human plasma assessed as compound remaining at 5 uM after 1 hr by LC/MS/MS method; format: ADME, cell-free; settings: 1 h, 5 µM
[1] = Metabolic stability in human liver microsomes assessed as compound remaining at 200 uM measured after 1 hr by LC/MS/MS method; format: ADME; settings: read-out: Stability
[2] = as §1; format: ADME, cell-free; settings: read-out: Stability

| IC50 (MV4-11) [nM] | Stability (Plasma) | remaining at 1 h, 200 µM [1] [%] | remaining at 1 h, 5 µM [2] [%] | SMILES |
| --- | --- | --- | --- | --- |
| 200 | Stable | 50 | – | CC(C)N(CCCNC(=O)Nc1ccc(C(C)(C)C)cc1)CC1=C[C@@H](n2cnc3c(N)ncnc32)[C@H](O)[C@@H]1O |
| – | Stable | – | – | CC(C)N(CCCNC(=O)Nc1ccc(C(C)(C)C)cc1)C[C@H]1C[C@@H](n2cnc3c(N)ncnc32)[C@H](O)[C@@H]1O |
| – | – | 50 | 90 | CC(C)N(CCCNC(=O)Nc1ccc(C(C)(C)C)cc1)C[C@H]1O[C@@H](n2cnc3c(N)ncnc32)[C@H](O)[C@@H]1O |
